Test [1] can be described thus: C. albicans growth with fluconazole, confirmation, fluorescence, retest (AID 2467). In kind it is functional, cell-based.
The next test has as its system BJ. Kind of test: cytotoxicity toward BJ-TERT-LT-ST fibroblasts, dose response, cell-based, RAS-independent, luminescence (AID 1935).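 Also: BJ fibroblasts immortalized with TERT plus LT and ST oncogenes.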 It is filed as functional. The following applies: Homo sapiens.
Test [2] can be described thus: inhibitors of firefly luciferase expression or activity, dose response, H4 neuroglioma cells, luminescence (AID 1990). In kind it is functional, cell-based.
In test [3] the target is Serine/threonine-protein phosphatase PP1-alpha catalytic subunit (Homo sapiens, UniProt P62136). Kind of test: PP1 phosphatase inhibitors, dose response, biochemical, fluorescence (AID 2394).
Chain of Serine/threonine-protein phosphatase PP1-alpha catalytic subunit (P62136 whole entry): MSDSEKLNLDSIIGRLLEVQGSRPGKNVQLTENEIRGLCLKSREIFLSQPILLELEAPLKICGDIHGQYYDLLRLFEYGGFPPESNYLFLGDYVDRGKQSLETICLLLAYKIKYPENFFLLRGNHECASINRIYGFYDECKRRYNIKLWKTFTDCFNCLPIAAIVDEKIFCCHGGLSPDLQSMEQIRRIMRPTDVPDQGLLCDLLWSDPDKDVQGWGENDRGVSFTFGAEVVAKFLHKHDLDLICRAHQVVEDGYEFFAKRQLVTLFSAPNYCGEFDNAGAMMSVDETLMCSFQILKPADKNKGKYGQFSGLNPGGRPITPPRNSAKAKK
Test [4] has as its target T1, Tyrosine-protein phosphatase non-receptor type 5 (Homo sapiens, UniProt P54829).
T1 sequence (P54829 whole entry): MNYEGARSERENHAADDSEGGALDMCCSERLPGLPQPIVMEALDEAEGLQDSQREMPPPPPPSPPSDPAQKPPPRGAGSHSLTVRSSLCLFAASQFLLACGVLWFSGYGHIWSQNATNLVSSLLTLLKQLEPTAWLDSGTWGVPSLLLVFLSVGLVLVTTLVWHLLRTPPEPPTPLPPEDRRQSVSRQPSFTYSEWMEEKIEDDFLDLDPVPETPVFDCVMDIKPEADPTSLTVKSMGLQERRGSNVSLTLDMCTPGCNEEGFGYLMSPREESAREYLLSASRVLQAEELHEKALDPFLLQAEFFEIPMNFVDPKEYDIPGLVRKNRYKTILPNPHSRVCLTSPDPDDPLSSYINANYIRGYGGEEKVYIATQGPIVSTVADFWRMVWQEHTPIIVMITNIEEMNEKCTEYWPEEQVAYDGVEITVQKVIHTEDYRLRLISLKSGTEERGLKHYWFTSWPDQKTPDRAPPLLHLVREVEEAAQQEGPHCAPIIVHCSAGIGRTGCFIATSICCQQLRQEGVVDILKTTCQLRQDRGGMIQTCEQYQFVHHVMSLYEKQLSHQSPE
Kind of test: STEP phosphatase inhibitors, confirmation, biochemical, fluorescence intensity, uHTS hits (AID 602372). It is filed as functional. The conditions noted are these: read-out: IC50_Mean.

In test [5] the target is Voltage-gated N-type calcium channel alpha-1B subunit/Amyloid beta A4 precursor protein-binding family A member 1 (Homo sapiens, UniProt Q00975+Q02410). It is filed as protein assay.
Chain of Voltage-gated N-type calcium channel alpha-1B subunit/Amyloid beta A4 precursor protein-binding family A member 1 (Q00975 whole entry): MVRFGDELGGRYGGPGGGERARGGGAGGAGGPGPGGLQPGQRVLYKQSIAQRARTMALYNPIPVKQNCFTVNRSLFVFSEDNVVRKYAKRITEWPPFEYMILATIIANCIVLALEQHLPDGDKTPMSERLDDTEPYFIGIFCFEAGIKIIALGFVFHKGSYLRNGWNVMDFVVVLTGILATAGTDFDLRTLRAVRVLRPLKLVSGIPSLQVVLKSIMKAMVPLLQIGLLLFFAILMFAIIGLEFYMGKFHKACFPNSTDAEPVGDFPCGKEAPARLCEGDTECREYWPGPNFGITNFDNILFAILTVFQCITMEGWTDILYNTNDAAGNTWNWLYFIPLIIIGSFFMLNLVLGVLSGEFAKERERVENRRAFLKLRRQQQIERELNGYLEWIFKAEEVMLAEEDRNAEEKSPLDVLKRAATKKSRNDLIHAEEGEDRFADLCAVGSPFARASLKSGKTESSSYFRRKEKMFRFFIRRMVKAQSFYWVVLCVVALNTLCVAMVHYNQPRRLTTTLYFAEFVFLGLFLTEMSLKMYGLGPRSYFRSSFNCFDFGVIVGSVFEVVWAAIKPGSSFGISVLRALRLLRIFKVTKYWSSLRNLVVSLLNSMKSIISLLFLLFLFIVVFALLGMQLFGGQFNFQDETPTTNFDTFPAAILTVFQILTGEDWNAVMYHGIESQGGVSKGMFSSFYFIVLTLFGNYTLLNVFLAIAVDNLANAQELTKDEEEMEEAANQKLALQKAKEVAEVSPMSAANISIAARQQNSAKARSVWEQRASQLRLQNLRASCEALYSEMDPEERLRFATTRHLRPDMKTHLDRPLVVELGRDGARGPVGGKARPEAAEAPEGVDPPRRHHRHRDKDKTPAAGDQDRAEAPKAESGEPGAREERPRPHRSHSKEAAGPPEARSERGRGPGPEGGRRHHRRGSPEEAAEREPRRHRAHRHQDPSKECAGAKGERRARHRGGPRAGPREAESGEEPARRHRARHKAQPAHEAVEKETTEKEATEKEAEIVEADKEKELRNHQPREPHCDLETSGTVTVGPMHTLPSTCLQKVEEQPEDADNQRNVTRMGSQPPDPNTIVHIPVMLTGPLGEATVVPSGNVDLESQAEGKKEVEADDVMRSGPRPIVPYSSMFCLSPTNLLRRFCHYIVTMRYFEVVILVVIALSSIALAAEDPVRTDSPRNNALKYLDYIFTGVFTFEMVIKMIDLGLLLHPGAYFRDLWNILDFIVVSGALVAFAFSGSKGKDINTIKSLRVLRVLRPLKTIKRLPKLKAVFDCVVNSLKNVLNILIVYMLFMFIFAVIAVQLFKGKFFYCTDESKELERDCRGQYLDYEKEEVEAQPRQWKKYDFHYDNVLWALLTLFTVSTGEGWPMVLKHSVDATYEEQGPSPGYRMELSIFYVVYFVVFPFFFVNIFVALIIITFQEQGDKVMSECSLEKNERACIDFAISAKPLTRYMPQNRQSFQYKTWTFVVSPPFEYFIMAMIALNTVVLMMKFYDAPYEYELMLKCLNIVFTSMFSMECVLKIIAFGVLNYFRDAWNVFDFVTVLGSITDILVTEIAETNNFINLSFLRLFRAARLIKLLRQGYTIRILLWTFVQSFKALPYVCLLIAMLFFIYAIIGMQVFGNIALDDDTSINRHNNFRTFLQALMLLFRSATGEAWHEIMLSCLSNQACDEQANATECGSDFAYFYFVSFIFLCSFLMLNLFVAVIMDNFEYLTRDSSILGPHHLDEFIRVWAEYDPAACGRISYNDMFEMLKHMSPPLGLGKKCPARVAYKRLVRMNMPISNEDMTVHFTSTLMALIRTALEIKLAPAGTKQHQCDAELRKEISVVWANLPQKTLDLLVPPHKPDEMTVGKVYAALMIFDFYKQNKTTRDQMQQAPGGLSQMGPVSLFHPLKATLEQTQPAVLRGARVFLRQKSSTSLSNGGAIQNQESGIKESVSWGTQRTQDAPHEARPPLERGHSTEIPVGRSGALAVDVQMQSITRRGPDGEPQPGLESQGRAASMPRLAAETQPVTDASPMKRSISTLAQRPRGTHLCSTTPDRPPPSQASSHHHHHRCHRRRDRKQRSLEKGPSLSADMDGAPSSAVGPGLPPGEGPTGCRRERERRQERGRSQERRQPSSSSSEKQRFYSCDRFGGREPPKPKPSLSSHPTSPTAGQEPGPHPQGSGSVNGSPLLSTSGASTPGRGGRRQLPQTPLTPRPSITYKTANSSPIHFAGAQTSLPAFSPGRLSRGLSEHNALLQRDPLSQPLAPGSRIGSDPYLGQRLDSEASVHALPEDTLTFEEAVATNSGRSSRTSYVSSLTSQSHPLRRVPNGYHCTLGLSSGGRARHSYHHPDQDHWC
Chain of Voltage-gated N-type calcium channel alpha-1B subunit/Amyloid beta A4 precursor protein-binding family A member 1 (Q02410 whole entry): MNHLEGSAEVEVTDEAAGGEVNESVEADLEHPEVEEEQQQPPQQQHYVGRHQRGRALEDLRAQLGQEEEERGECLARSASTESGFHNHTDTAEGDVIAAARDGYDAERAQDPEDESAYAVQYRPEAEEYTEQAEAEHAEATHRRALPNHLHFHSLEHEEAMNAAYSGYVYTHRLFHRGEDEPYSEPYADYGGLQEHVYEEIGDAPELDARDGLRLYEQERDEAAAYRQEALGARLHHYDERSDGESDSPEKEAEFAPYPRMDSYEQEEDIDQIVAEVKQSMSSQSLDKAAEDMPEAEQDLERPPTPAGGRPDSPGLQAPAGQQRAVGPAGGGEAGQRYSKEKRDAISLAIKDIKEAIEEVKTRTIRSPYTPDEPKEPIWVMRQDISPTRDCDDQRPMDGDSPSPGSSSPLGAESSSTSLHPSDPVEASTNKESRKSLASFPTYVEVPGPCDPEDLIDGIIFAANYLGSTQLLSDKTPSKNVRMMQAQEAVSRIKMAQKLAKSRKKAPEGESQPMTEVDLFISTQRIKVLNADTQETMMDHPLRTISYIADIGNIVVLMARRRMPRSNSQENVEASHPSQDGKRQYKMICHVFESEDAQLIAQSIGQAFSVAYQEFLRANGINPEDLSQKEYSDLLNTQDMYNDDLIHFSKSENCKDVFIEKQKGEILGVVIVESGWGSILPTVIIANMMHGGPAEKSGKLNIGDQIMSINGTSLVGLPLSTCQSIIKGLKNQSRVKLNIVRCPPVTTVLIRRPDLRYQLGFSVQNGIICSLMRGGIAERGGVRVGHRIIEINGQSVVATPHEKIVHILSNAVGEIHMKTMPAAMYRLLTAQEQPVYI
Test [6] addresses T2, Tyrosine-protein phosphatase non-receptor type 22 (Homo sapiens, UniProt Q9Y2R2).
T2 sequence (Q9Y2R2 whole entry): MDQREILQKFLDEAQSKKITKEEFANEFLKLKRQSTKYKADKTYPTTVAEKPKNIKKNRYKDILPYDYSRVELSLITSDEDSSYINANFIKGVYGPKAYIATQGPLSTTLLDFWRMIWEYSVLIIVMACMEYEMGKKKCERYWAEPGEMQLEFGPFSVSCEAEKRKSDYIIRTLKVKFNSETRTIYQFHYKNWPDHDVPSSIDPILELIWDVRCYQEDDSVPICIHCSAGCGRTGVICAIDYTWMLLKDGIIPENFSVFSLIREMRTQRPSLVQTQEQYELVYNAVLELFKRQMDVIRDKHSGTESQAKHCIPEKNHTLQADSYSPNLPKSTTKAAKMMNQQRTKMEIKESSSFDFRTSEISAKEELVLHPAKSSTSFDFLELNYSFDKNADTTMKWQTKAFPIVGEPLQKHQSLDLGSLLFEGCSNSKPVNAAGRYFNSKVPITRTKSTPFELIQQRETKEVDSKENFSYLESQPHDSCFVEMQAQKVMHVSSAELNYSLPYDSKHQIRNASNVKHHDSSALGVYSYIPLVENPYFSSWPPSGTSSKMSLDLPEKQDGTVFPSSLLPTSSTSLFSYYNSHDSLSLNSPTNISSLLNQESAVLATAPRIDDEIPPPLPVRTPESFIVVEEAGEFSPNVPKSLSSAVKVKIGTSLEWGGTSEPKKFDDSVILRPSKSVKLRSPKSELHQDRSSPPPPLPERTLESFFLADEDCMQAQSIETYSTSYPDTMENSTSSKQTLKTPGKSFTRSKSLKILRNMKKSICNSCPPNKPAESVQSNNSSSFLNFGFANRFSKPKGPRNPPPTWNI
The test is described as follows: SAR LYP1 Fluorescent Assay using pCAP substrate for In Vitro dose response studies - Set 4. [Related pubchem assays (depositor defined):AID1779, AID1784]. It is filed as functional.

The target in another test is T3, Aminopeptidase N (Plasmodium falciparum FcB1/Columbia, UniProt O96935).
T3 sequence (O96935 whole entry): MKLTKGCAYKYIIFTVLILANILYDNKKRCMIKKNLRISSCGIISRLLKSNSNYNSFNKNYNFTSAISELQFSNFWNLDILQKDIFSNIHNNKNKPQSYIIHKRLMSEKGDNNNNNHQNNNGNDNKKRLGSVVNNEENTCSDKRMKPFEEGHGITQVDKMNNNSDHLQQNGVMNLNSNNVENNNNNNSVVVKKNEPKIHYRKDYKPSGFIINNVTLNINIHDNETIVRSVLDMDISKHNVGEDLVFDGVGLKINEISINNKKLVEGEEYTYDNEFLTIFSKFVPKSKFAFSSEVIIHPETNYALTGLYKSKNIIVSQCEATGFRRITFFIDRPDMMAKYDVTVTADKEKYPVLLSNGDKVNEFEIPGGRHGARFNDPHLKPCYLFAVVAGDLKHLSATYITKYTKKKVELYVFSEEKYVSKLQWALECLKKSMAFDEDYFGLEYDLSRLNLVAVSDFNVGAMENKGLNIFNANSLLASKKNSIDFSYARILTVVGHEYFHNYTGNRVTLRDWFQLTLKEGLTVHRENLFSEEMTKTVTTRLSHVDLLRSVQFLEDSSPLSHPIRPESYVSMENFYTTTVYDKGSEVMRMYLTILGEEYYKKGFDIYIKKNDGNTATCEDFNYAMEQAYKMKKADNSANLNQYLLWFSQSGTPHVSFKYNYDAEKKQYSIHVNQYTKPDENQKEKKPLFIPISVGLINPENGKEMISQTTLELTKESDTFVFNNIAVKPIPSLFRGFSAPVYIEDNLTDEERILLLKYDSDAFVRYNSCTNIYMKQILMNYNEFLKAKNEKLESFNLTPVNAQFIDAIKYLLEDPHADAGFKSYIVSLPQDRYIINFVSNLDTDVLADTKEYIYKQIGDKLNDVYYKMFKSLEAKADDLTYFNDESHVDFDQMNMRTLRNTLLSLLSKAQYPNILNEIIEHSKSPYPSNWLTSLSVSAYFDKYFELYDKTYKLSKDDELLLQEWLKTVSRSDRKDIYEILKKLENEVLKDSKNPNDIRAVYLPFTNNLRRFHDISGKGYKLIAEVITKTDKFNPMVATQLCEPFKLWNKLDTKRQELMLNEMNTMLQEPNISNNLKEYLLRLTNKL
The test is described as follows: P. falciparum M1AAP inhibitors, biochemical, fluorogenic H-Leu-NHMec substrate, 1536-well (AID 1445). Details: species or system Plasmodium falciparum 3D7, 3D7.

Structures are written as SMILES. Calls of active or inactive are those of the source. Bounds are passed on as bounds.

As to `CCN1/C(=C/c2ccc3cc(C)ccc3[n+]2CC)Sc2cc(C)c(C)cc21`, the values for the EC50 (in test [1]; in the test with BJ) were < 0.03 µM (active) and 13.7 µM (inconclusive), respectively.

With `Cc1oc2c(c1C(=O)c1ccccc1)C(=O)C(=O)c1ccccc1-2`, the EC50 – broadly, the midpoint of the concentration-response curve – in test [2] is recorded as > 120 µM (not active).

Consider `O=C1CCCC2=C1C1(O)C(=O)c3ccccc3C1(O)O2` (stereo not drawn), for which the IC50 in test [3] was > 67 µM (not active).

Take `CSc1ccc(C=NNc2ccc(S(=O)(=O)Nc3ccccc3C(=O)O)cc2[N+](=O)[O-])cc1`: the IC50 in test [4] is 4.12 µM (active).

For the compound `O=C(O)COc1ccc(/C=N/NC(=O)c2ccc(-c3csc(Nc4ccc(Cl)cc4)n3)cc2)cc1`, the IC50 is 10.1 µM (active) in test [5] and 0.527 µM (active) in test [6].

With `CC(/C=C1\SC(=S)N(NS(=O)(=O)c2ccccc2)C1=O)=C\c1ccccc1`, at Aminopeptidase N, the IC50 was 45.4 µM (active).

Values taken from ChEMBL document CHEMBL1201862, “PubChem BioAssay data set” (2004).
